Laboratory results reported in patent US5534654A, “Aromatic-sulfonamide-type hydroxamic acid derivative” (Shionogi & Co., Ltd., priority 1991, dated 1996).

Legend:
Assay type in all cases: cell-based
[1] = test system: Vascular Endothelial Cells of Human Umbilical Vein; assay: Assay of Inhibition Against the Cell Growth of Vascular Endothelial Cells of Human Umbilical Vein (MTT method); conditions: 72 h, 3-day incubation, OD570
Protocol: Assay of Inhibition Against the Cell Growth of Vascular Endothelial Cells of Human Umbilical Vein
Human vascular endothelial cells used had been obtained from human umbilical vein by perfusion method using an enzyme solution of collagenase and have been maintained by subculturing in a culture solution, i.e., M199 medium (Gibco, Inc.) supplemented with 20% fetal bovine serum (FBS; Gibco, Inc.), 100 μg/ml endothelial mitogen (Funakoshi), 90 μg/ml heparin, 50 IU/ml Penicillin and 50 μg/ml Streptomycin. […] On the next day, to each well was added 10 μl of a medium containing a sample at various concentrations. […] After 3-day-incubation, to the mixture was added 50 μl of 3 mg/ml MTT solution (a solution of 3-(4,5-dimethyl-2-thiazolyl)-2,5-diphenyl-2H-tetrazolium bromide dissolved in a culture solution) and the incubation was continued for 4 hr. Cells and MTT pigment were solubilized by the addition of 50 μl of 20% SDS solution (sodium dodecylsulfate dissolved in 0.02N HCl) and the incubation continued for 1 hr, which was followed by the determination of OD570 value on spectrophotometer.

[2] = test system: Cell Adhesion of Leukocytes onto Vascular Endothelial Cells of Human Umbilical Vein; assay: Assay of Inhibition Activity Against Cell Adhesion of Leukocytes (HL60 cells) onto Vascular Endothelial Cells of Human Umbilical Vein; conditions: 16-hour incubation with sample, then TNF 4 hr, HL-60 cells 30 min, Rose Bengal OD570
Protocol: Assay of Inhibition Activity Against Cell Adhesion of Leukocytes onto Vascular Endothelial Cells of Human Umbilical Vein
Human vascular endothelial cells used had been obtained from human umbilical vein by perfusion method using an enzyme solution of collagenase and have been maintained by subculturing in a culture solution, i.e., M199 medium (Gibco, Inc.) supplemented with 20% fetal bovine serum (FBS; Gibco, Inc.), 100 μg/ml endothelial mitogen (Funakoshi), 90 μg/ml heparin, 50 IU/ml Penicillin and 50 μg/ml Streptomycin. HL60 cells (human myelocytic leukemia cells) were purchased from Flow, Inc. and have been maintained by subculturing in RPMI1640 medium containing 10% FBS.
Four hours later, to each well was added 4 μl of a medium containing a sample at various concentrations. […] After 16-hour-incubation, 4 μl of 1×10^4 μ/ml TNF solution (tumor necrosis factor dissolved in a medium solution) was added and the incubation was continued for 4 hr. The resultant medium solution containing the sample was then filtered with suction and washed (×3) with DMEM solution containing 10% FBS, which was followed by the addition of 200 μl suspension of 3×10^5 HL-60 cells suspended in DMEM containing 10% FBS. The incubation was carried out at 37° C. for 30 min. […] After being allowed to stand for 5 min at room temperature, the supernatant was removed by aspiration, which was followed by washing (×2) with DMEM solution containing 10% FBS. A mixture of ethanol/phosphate-buffered physiological saline (1:1) was added and the resultant mixture was allowed to stand for 30 min to solubilize Rose Bengal pigment, which was followed by the determination of OD570 value on spectrophotometer.

[3] = test system: NIH3T3 cells transformed by ras gene; assay: Detransformation of Cells Transformed by Ras Gene; conditions: Mus musculus, 24 hours, 2-fold serial dilutions, morphological observation, read-out: MTC: Minimum Concentration Required for the Detransformation of Cells Transformed by Ras Gene
Protocol: Medium used: 9.5 g of Dulbecco's Eagle MEM medium (Nissui Seiyaku) solution, 20 ml of 7% sodium hydrogen carbonate solution are added to distilled water and a fetal bovine serum (Flow Laboratories, Inc.) was added to a final concentration of 10 v/v % to obtain the medium. The medium (100 μl) was added to a 96-well plate (Sumitomo Bakelite) and NIH3T3 cells transformed by ras gene (5×10^3 cells/well) were seeded. The plate was incubated for 24 hr in a 5% carbon dioxide gas incubator. Then a sample to be tested was added in such a manner as to give 2-fold serial dilutions. After 24 hours, cells were observed morphologically to evaluate the detransformation activity.
Minimum Concentration Required for the Detransformation of Cells Transformed by Ras Gene

SMILES | IC50 [1] | IC50 [2] | minimal effective concentration [3]
O=C(/C=C/C#Cc1cccc(NS(=O)(=O)c2ccccc2)c1)NO [Compound I-18, (2E)-5-[3-(Phenylsulfonylamino)phenyl]pent-2-en-4-ynohydroxamic Acid] | 13.8 µM | 2.5 µM | 0.039 µM
O=C(/C=C/C=C/c1cc2ccccc2cc1NS(=O)(=O)c1ccccc1)NO [Compound I-20, (2E)(4E)-5-(3'-Phenylsulfonylamino-2'-naphthyl)pentadienohydroxamic Acid] | – | – | 0.6 µM
O=C(/C=C/C=C/c1cc2ccccc2n1S(=O)(=O)c1ccccc1)NO [Compound I-17, (2E)(4E)-5-(1-phenylsulfonylindol-2-yl)pentadienohydroxamic Acid] | – | 8.3 µM | 3.2 µM
CN(c1cccc(C#C/C=C/C(=O)NO)c1)S(=O)(=O)c1ccccc1 [Compound I-19, (2E)-5-[3-(N-Methylphenylsulfonylamino)phenyl]pent-2-en-4-ynohydroxamic Acid] | 26.7 µM | 6.3 µM | 0.3 µM
CN(c1cccc(/C=C/C=C/C(=O)NO)c1)S(=O)(=O)c1ccccc1 [Compound I-11] | – | 6.4 µM | 0.6 µM
O=C(/C=C/C=C/C=C/c1ccccc1NS(=O)(=O)c1ccccc1)NO [Compound I-9, (2E)(4E)(6E)-7-(2-Phenylsulfonylaminophenyl)-heptatrienohydroxamic Acid] | 25.6 µM | 6.5 µM | 3.2 µM
O=C(/C=C/C=C/c1ccc(NS(=O)(=O)c2ccccc2)cc1)NO [Compound I-12, (2E)(4E)-5-(4-Phenylsulfonylaminophenyl)pentadienohydroxamic Acid] | – | – | 3.1 µM
O=C(/C=C/C=C/c1cccc(NS(=O)(=O)c2ccccc2)c1)NO [Compound I-10, (2E)(4E)-5-(3-Phenylsulfonylaminophenyl)pentadienohydroxamic Acid] | 20.4 µM | 5.3 µM | 0.3 µM
CN(c1ccccc1/C=C/C=C/C(=O)NO)S(=O)(=O)c1ccccc1 [Compound I-7, (2E)(4E) -5-[2-(N-Methylphenylsulfonylamino)phenyl]-2,4-pentadienohydroxamic Acid] | – | 4.5 µM | 0.2 µM
O=C(/C=C/C=C/c1ccccc1NS(=O)(=O)c1ccccc1)NO [Compound I-4, (2E)(4E)-5-(2-Phenylsulfonylaminophenyl)pentadienohydroxamic Acid] | – | – | 1.6 µM
